{
  "source": "paper PMC8778659",
  "about": "(Bioconjugate Chemistry, 2021)",
  "origin": "cited, not measured here",
  "system": "LNCaP xenografts",
  "details": "1 h p.i. ref 29",
  "data": [
    {"smiles": "O=C(O)CC[C@H](NC(=O)N[C@@H](CCCCNC(=O)c1ccc(-c2cn(CCOCCOCC[18F])nn2)cc1)C(=O)O)C(=O)O", "note": "[[18F]PSMA-MIC01]", "values": [
      {"measurement": "specific tumor uptake", "value": "11.7 ± 4.2", "unit": "%ID/g"}
    ]}
  ]
}
